Test results taken from US8372412B2, “Bioassay and peptides for use therein” (Rapid Biosensor Systems Limited, priority 2005, dated 2013).
“Also recorded” adds a separate entry of the source.

Assays:
[1] = test system: antisera (from rabbit) to the p3 18-mer (SEQ ID 11); test: Targeted Epitope ELISA (competitive ELISA against plate-coated p3 18-mer P779); type: binding; settings: for binding to the antisera relative to the p3 18-mer: competitive ELISA as before, 6-mers and re-tested 9-mer P782-10
Method: (§1) These peptides, along with the p3 18-mer (SEQ ID 11) were screened against antisera (from rabbit) to the p3 18-mer (SEQ ID 11). The screen utilized the competitive ELISA (Enzyme-linked immunosorbant assay) technique, which was used to assess the relative binding affinities of the 9-mer peptides to the 18-mer peptide.
(§2) Briefly, the assay involved binding (coating) the p3 18-mer (P779, SEQ ID 11) to ELISA plates, followed by incubation with variables amounts of competing ligand (9-mers, SEQ ID 1-10) with the antisera (1:250 dilution). The level of binding of the antisera to p3 18-mer (P779, SEQ ID 11) was indicated by treatment with goat anti-rabbit peroxidase conjugated antibody and then by addition of a chromogenic substrate ABTS (2,2-azino-di-[3-ethylbenzthiazoline sulphonate]) and hydrogen peroxide where upon a green colour developed which was recorded as an optical density (absorbance) on a plate reader. The colour development is proportional to the level of binding of the primary antisera bound to the plate.
A test ELISA was performed in order to ascertain the concentrations of coating peptide and competing peptides for the ELISA experiments, comprising a competitive ELISA of 9-mer P782-1 ([…])—SEQ ID 1—against 18-mer P779 ([…])—SEQ ID 11 (Mustafa, A. S. et al, supra). This 9-mer was chosen as it also overlaps with the p2 18-mer ([…])—SEQ ID 12. […] ELISA plates were coated with 2 μM solution of p3 18-mer (P779)—SEQ ID 11—and used 500 μM solutions of competing peptides, which were then subjected to four-fold serial dilution.
A Targeted Epitope ELISA was then designed to test the importance of the C-terminal region of the epitope on binding to the antisera. Two 6-mers were synthesized, P782-11 (GNNSPA)—SEQ ID 13—and P782-12 (NNSPAV)—SEQ ID 14, which are truncated forms of their respective 9-mers and subjected these to competitive ELISA as before and also re-tested the 9-mer P782-10 (SEQ ID 10) identified as a significant epitope in the Epitope Mapping ELISA.

[2] = test system: antisera (from rabbit) to the p3 18-mer (SEQ ID 11); test: Epitope Mapping ELISA (competitive ELISA against plate-coated p3 18-mer P779); type: binding; settings: plates coated with 2 μM P779, competing peptides 500 μM, four-fold serial dilution, antisera 1:250
Method: as §1, §2
A test ELISA was performed in order to ascertain the concentrations of coating peptide and competing peptides for the ELISA experiments, comprising a competitive ELISA of 9-mer P782-1 ([…])—SEQ ID 1—against 18-mer P779 ([…])—SEQ ID 11 (Mustafa, A. S. et al, supra). This 9-mer was chosen as it also overlaps with the p2 18-mer ([…])—SEQ ID 12. […]

[3] = Heat stability of peptide variants; type: physicochemical; settings: C-terminal variants of SGGNNSPA-X; no method or data given

| Substance | binding to the antisera relative to the p3 18-mer [1] | binding to the antisera relative to the p3 18-mer [2] | further results |
| --- | --- | --- | --- |
| GNNSPA (listed as Mycobacterium tuberculosis) [P782-11] | did not bind to the antisera | – | – |
| NNSPAV (listed as Mycobacterium tuberculosis) [P782-12] | – | – | binds to the antisera less tightly relative to either 9-mer P782-10 or 18-mer P779 ([1]; competitive ELISA, relative binding affinity): 1.99 fold |
| QSGGNNSPA (listed as Mycobacterium tuberculosis) [P782-9] | – | no significant binding | – |
| SGGNNSPAA (Modification (at position 9) of native Mycobacterium tuberculosis sequence) [SEQ ID 15] | – | – | heat stability [3]: particularly good Leu-heat stability; also recorded: increased heat stability |
| SGGNNSPAV (listed as Mycobacterium tuberculosis) [P782-10] | bound to the antisera as tightly as the p3 18-mer peptide P779 | bound to the antisera as tightly as the p3 18-mer peptide | – |
